Here are results for twelve compounds from PubChem BioAssay (NCI).

“And” between values parts separate entries of the source, which are not always exact repeats. Equal values may be shown once.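 Compound exposure: 48 hours, 5 concentrations, 96-well plates. GI50 marks 50% less growth. TGI is the concentration that stops growth completely.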 Bounds are passed on as bounds.

Test systems include 786-0 renal; A498 renal; LOX IMVI melanoma; MALME-3M melanoma; MDA-N; NCI-H522 lung; OVCAR-4 ovarian; SK-MEL-5 melanoma; SNB-19 CNS; SR leukemia; T-47D breast.
Common to all, as to assay: growth of human tumour cells (NCI), 48 h

For the compound `CC1=C2C(=CO[C@H](C)[C@H]2C)C(=O)C(C(=O)O)=C1O`, the TGI is 62.7 µM in the experiment on 786-0 renal; 44.7 µM and 53.8 µM in the experiment on LOX IMVI melanoma; 54.4 µM and 115 µM in the experiment with MALME-3M melanoma; 72.2 µM in the experiment with MDA-N; 36.4 µM and 34.4 µM with NCI-H522 lung; > 80.5 µM and 87.5 µM in the experiment on OVCAR-4 ovarian. Moreover, the TGI is 35.7 µM and 45.4 µM in the experiment on SK-MEL-5 melanoma; 55.6 µM and > 67.7 µM in the experiment on SNB-19 CNS; 66.7 µM in the experiment with SR leukemia; over 94.5 µM with T-47D breast. Moreover, the GI50 with A498 renal was 32.7 µM; with LOX IMVI melanoma, 20.1 µM; with MALME-3M melanoma, 21 µM; with NCI-H522 lung it was 18.5 µM; with SK-MEL-5 melanoma, 20.4 µM; with SNB-19 CNS, 27.9 µM.

On to `O=C(c1cccs1)N1CCN(C(=O)c2cccs2)C1=S`, for which the TGI in the experiment on 786-0 renal was determined as 12.4 µM; in the experiment on A498 renal, 32.1 µM; in the experiment with LOX IMVI melanoma, 10.8 µM; in the experiment with MALME-3M melanoma it was 28.7 µM; with MDA-N, 14.8 µM; with NCI-H522 lung, 35.8 µM. Moreover, the TGI is 32.3 µM with OVCAR-4 ovarian; 18.2 µM in the experiment on SK-MEL-5 melanoma; 32.7 µM with SNB-19 CNS; over 100 µM in the experiment on SR leukemia; 23.8 µM in the experiment with T-47D breast.

In the case of `CN1CC2=C(NC(=S)NC2c2ccccc2)/C(=C/c2ccccc2)C1` (centres undefined), the TGI in the experiment on 786-0 renal, in the experiment with A498 renal, in the experiment with LOX IMVI melanoma, with MALME-3M melanoma, with MDA-N and in the experiment with NCI-H522 lung was over 100 µM each time. In addition, the TGI in the experiment on SK-MEL-5 melanoma is 74.1 µM; in the experiment on SNB-19 CNS, over 100 µM; with SR leukemia, over 100 µM; in the experiment with T-47D breast, over 100 µM.

For the compound `COc1ccc(-c2oc3cc(O)cc(O)c3c(=O)c2OC)cc1`, the TGI was 66.8 µM in the experiment with A498 renal; over 100 µM in the experiment on LOX IMVI melanoma; over 100 µM in the experiment with MALME-3M melanoma; over 100 µM in the experiment with MDA-N; 9.7 µM in the experiment on NCI-H522 lung; over 100 µM in the experiment on OVCAR-4 ovarian. Also, the TGI was 43.5 µM in the experiment with SK-MEL-5 melanoma, over 100 µM in the experiment with SNB-19 CNS, over 100 µM with SR leukemia and over 100 µM in the experiment with T-47D breast.

On to `COc1cc(C2c3cc4c(cc3C3OC[C@@H]2C3CO)OCO4)cc(OC)c1OC` (some centres undefined), for which the TGI in the experiment on 786-0 renal was over 100 µM; with A498 renal, over 100 µM; in the experiment on LOX IMVI melanoma it was over 100 µM; in the experiment with MALME-3M melanoma, over 100 µM; with MDA-N, 36.1 µM; in the experiment with NCI-H522 lung, 47.8 µM. Moreover, the TGI was over 100 µM in the experiment on OVCAR-4 ovarian; 27.9 µM in the experiment on SK-MEL-5 melanoma; over 100 µM in the experiment with SNB-19 CNS; over 100 µM with SR leukemia; over 100 µM in the experiment with T-47D breast.

Take `CC(C)(C)[Si](C)(C)OCc1cccc(OCCOc2cccc(CO[Si](C)(C)C(C)(C)C)c2[N+](=O)[O-])c1[N+](=O)[O-]`: the TGI with 786-0 renal, in the experiment with A498 renal, in the experiment on LOX IMVI melanoma, in the experiment with MALME-3M melanoma, in the experiment with MDA-N and with NCI-H522 lung was over 100 µM each time. Moreover, the TGI with OVCAR-4 ovarian, with SK-MEL-5 melanoma, in the experiment with SNB-19 CNS, in the experiment with SR leukemia and with T-47D breast was over 100 µM in each case.

In the case of `CCCSc1ccc2[nH]c(N3C(=O)/C(=C/c4ccccc4)N=C3c3ccccc3)cc2c1`, the TGI is over 50 µM in the experiment with 786-0 renal; over 50 µM in the experiment with A498 renal; over 50 µM with LOX IMVI melanoma; over 50 µM with MALME-3M melanoma; 20.1 µM in the experiment on MDA-N; 36 µM in the experiment with NCI-H522 lung. In addition, the TGI with OVCAR-4 ovarian is over 50 µM; in the experiment with SK-MEL-5 melanoma, 44.4 µM; with SNB-19 CNS, over 50 µM; in the experiment on SR leukemia, over 50 µM; with T-47D breast, over 50 µM.

Regarding `C=C(C)[C@H]1C2=CC(C)=C(O2)[C@@H](O[C@@H]2c3oc(cc3C)[C@H](C(=C)C)[C@H]3C=C(CC[C@H]2C(=C)C)C(=O)O3)[C@H](C(=C)C)CCC2=C[C@H]1OC2=O`, the TGI in the experiment on 786-0 renal, in the experiment with A498 renal, in the experiment on LOX IMVI melanoma, in the experiment with MALME-3M melanoma, in the experiment on MDA-N and with NCI-H522 lung was over 100 µM in each case. The TGI with OVCAR-4 ovarian, in the experiment with SK-MEL-5 melanoma, in the experiment on SNB-19 CNS, in the experiment on SR leukemia and with T-47D breast was over 100 µM throughout.

As for `C/C(=N\NC(=S)N(C)C)c1cccnn1`, the TGI with 786-0 renal was over 100 µM; in the experiment with A498 renal, 10.7 µM; in the experiment on LOX IMVI melanoma, over 51.2 µM; in the experiment on MALME-3M melanoma it was over 70.5 µM; with MDA-N, over 74.2 µM; in the experiment on NCI-H522 lung, over 100 µM. For the same compound, the TGI with OVCAR-4 ovarian is over 100 µM; in the experiment on SK-MEL-5 melanoma, over 20.7 µM; with SNB-19 CNS, over 100 µM; with SR leukemia, over 20.3 µM; in the experiment with T-47D breast, over 100 µM.

As for `C=CCOn1c(C=C)nc2ccc(C)cc21`, the TGI came out at 32.9 µM in the experiment on 786-0 renal; 43.6 µM with A498 renal; 37.5 µM in the experiment with LOX IMVI melanoma; 38.9 µM in the experiment on MALME-3M melanoma; 35.7 µM in the experiment on MDA-N; 32.9 µM in the experiment on NCI-H522 lung. In addition, the TGI in the experiment with OVCAR-4 ovarian is over 100 µM; in the experiment on SK-MEL-5 melanoma it was 31.4 µM; with SNB-19 CNS, 46 µM; in the experiment on SR leukemia, 33.4 µM; in the experiment on T-47D breast, 43.5 µM.

Regarding `COc1cccc(N=N/C(=N\NC(=O)c2ccc(C)cc2)c2ccc(N(CCC#N)CCC#N)cc2C)c1`, the TGI with 786-0 renal, in the experiment with A498 renal, in the experiment with LOX IMVI melanoma, with MALME-3M melanoma, with MDA-N and in the experiment on OVCAR-4 ovarian was over 100 µM each time. Besides, the TGI in the experiment with SK-MEL-5 melanoma, in the experiment with SNB-19 CNS, in the experiment on SR leukemia and with T-47D breast was over 100 µM each time.

For the compound `C/C(=N\Nc1nc2ccccc2n1C)c1cc2ccccc2cn1`, the TGI with 786-0 renal was 3.82 µM; in the experiment on A498 renal it was 1.47 µM; in the experiment on LOX IMVI melanoma it was 4.33 µM; with MALME-3M melanoma, 3.03 µM; in the experiment on MDA-N, 16.6 µM; in the experiment on NCI-H522 lung, 4.67 µM. The TGI with OVCAR-4 ovarian was 13 µM; in the experiment on SK-MEL-5 melanoma, 12.4 µM; with SNB-19 CNS, 14.6 µM; with SR leukemia it was over 100 µM; in the experiment on T-47D breast, 5.66 µM.
